pKi: −log10 of the molar value.
Biological target: Substance-P receptor (Homo sapiens, UniProt P25103)
Assay: Affinity for human Tachykinin receptor 1 expressed in CHO cells
Format: cell-based

Sequence of Substance-P receptor (P25103 whole entry): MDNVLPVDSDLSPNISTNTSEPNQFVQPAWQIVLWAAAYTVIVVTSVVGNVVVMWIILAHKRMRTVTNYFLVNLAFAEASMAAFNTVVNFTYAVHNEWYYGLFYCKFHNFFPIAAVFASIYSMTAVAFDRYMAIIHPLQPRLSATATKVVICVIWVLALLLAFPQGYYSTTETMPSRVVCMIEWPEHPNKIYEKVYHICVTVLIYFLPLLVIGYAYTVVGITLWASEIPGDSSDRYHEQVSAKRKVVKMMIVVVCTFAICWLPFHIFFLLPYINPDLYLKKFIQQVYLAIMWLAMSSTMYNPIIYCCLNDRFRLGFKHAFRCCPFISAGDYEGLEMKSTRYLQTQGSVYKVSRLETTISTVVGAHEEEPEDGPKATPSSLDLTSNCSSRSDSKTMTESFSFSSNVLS

Row | Compound | pKi
1 | N#Cc1cccc(CN2CCC3(CC2)NC(=O)N(Cc2cc(C(F)(F)F)cc(C(F)(F)F)c2)C3=O)c1 | 6.97
2 | O=C1NC2(CCN(S(=O)(=O)CCc3cccc4ccccc34)CC2)C(=O)N1Cc1cc(C(F)(F)F)cc(C(F)(F)F)c1 | 7.13
3 | O=C(c1cc(C(F)(F)F)cc(C(F)(F)F)c1)N1CCC2(CC1)NC(=O)N(Cc1cccc(-c3ccccc3)c1)C2=O | 6.86
4 | CSc1ccc(N2C(=O)NC3(CCN(C(=O)c4cc(C(F)(F)F)cc(C(F)(F)F)c4)CC3)C2=O)cc1 | 6.88
5 | O=C(c1cccc2ccccc12)N1CCC2(CC1)NC(=O)N(c1cc(C(F)(F)F)cc(C(F)(F)F)c1)C2=O | 6.47
6 | Cc1cc(C)c(C(=O)N2CCC3(CC2)NC(=O)N(c2cc(C(F)(F)F)cc(C(F)(F)F)c2)C3=O)c(C)c1 | 6.49
7 | O=C(c1cc(C(F)(F)F)cc(C(F)(F)F)c1)N1CCC2(CC1)NC(=O)N(CCc1c[nH]c3ccccc13)C2=O | 6.24
8 | CN1C(=O)N(Cc2cc(C(F)(F)F)cc(C(F)(F)F)c2)C2(CCN(C(=O)c3c(Cl)cccc3Cl)CC2)C1=O | 6.19
9 | CN1C(=O)N(Cc2cc(C(F)(F)F)cc(C(F)(F)F)c2)C2(CCN(C(=O)CN3CCC(Cc4ccccc4)CC3)CC2)C1=O | 5.43
10 | Cc1cccc(NC(=O)N2CCC3(CC2)NC(=O)N(Cc2cc(C(F)(F)F)cc(C(F)(F)F)c2)C3=O)c1 | 7.34
11 | O=C(c1cc(C(F)(F)F)cc(C(F)(F)F)c1)N1CCC2(CC1)NC(=O)N(Cc1ccc3c(c1)OCO3)C2=O | 6.61
12 | CN1C(=O)N(Cc2cc(C(F)(F)F)cc(C(F)(F)F)c2)C2(CCN(C(=O)c3cccc4ccccc34)CC2)C1=O | 6.34
